Results taken from publication PMC9253031, “Redox-sensitive doxorubicin liposome: a formulation approach for targeted tumor therapy” (Scientific Reports, 2022).

Assays:
[1] = tested on: C26 cell line (murine colon carcinoma cells); experiment: MTT cytotoxicity, C26 cells; format: cell-based, mouse; details: 48 h treatment
Method: (§1) C26 and NIH-3T3 cell lines were cultured at 37 °C in a 5% CO2/95% air humidified atmosphere in RPMI 1640 and DEMEM media, respectively; the media were supplemented with 10% FCS and 100 U/mL penicillin, and 100 μg/mL streptomycin.
(§2) C26 and NIH-3T3 cells were seeded at 5000 cells/well into 96-well plates. […] After 48 h incubation at 37 °C, the cells were washed with PBS and MTT (10 μL/well MTT and 100 μL/well cell media) was added. After an additional incubation for 4 h at 37 °C, the absorbance of MTT was measured using a microplate reader (Awareness Technology Inc., USA) at 570 nm. Relative cell death (R) was calculated as follows:
(§3) R = 1 − [(A sample − A blank)/(A control − A blank)], where A sample and A control are the absorbances of the cells incubated with the sample solutions and the culture medium as the control group, respectively. A blank is the absorbance of MTT solution in a well without cells. The IC50 values were calculated using CalcuSyn Version 2.0 software (BIOSOFT, UK)[52].

[2] = tested on: NIH-3T3 cell line (mouse embryonic fibroblast cells); experiment: MTT cytotoxicity, NIH-3T3 cells; format: cell-based; details: 48 h treatment
Method: as §1, §2, §3

C26 cells = experiment: Dox cellular uptake by spectrofluorometry; format: cell-based, mouse; details: 1 and 3 h incubation, compared to Caelyx
Method: C26 cells were seeded at 1 × 10^6 cells/well in 6-well plates and incubated overnight. […] After 1 and 3 h of incubation at 37 °C, cells were washed with cold PBS. Then, acidified isopropyl alcohol (0.9 mL) was added to each well and transferred to a 2 mL vial and stored at 4 °C for 24 h. Samples were centrifuged for 10 min at 14,000 rpm.

[3] = Plasma Dox concentration and pharmacokinetics after i.v. administration; format: in vivo, BALB/c mice; details: Dox 10 mg/kg, mice
C26 tumor = experiment: Anti-tumor efficacy and survival in mice bearing C26 colon cancer; details: single i.v. dose 10 mg/kg Dox

Compound	melting point [°C]	IC50 (C26) 48 h [1] [µg/mL]	IC50 (NIH) 48 h [2] [µg/mL]	Cellular uptake of Dox (spectrofluorometry) (C26 cells)	AUC (total area under the plasma concentration-time curve) [3] [ng·h/mL]	Cl (clearance) [3]	MST (median survival time) (C26 tumor) [days]	TGD (tumor growth delay) (C26 tumor) [%]	TTE (time to reach end point) ± SD (C26 tumor; C26 tumor, BALB/c mice, listed as Dox.HCl, 10 mg/kg) [days]
O=C(O)CCCCCCCCC[Se][Se]CCCCCCCCCC(=O)O	82								
COc1cccc2c1C(=O)c1c(O)c3c(c(O)c1C2=O)C[C@@](O)(C(=O)CO)C[C@@H]3O[C@H]1C[C@H](N)[C@H](O)[C@H](C)O1.Cl [Dox, Doxorubicin hydrochloride]		0.01 ± 0.010	0.042 ± 0.013	highest cellular uptake	7200	1.38 (mg)/(μg/mL)/h	33.10	10.12	32.40 ± 5.94
